Results reported in patent US8067039B2, “Extract of plant Dendrobii caulis and preparing process thereof” (National Yang-Ming University, priority 2003, dated 2011).

Tested on: RPE cell
Test: Proteolytic activity of cultured RPE cell extracts on AGE-BSA (electrophoresis, ImageQuant)
Type: cell-based, bovine
Conditions: 50 ng/ml HGF
Procedure: 1×10^6 RPE cells are seeded into the 96-well microplate, containing 10% FCS in DMEM, at 37° C., supplied with 5% CO2. After incubation of 48 hrs, five sets of experiment are treated with the Dendrobii Caulis crude extract, in which each set of experiment includes two microplates for different treating time. After treating for 36 or 48 hrs, 0.01% EDTA is added into the microplate for harvesting the cells, and then the cells are suspended in the […]. Then, the cell solution is centrifuged for 5 min at 1200 rpm, and the cells are suspended back into 10 ml DEME twice. Then, the cell solution is centrifuged again, and is suspended back again with the 0.7 ml Homogenization buffer (50 mM sodium acetate buffer, pH4.5, 1 mM DTT, 0.15M NaCl, 3 mM NaN3) containing 0.1% TritonX-100. Then, the cell solution is vibrated by a sonicator for 15 sec, four cycles, for breaking the cell completely. […] The protein concentration is detected. […]
1×10^6 RPE cells are seeded into the 96-well microplate, containing 10% FCS in DMEM, at 37° C., supplied with 5% CO2. […] After treating for 36 or 48 hrs, 0.01% EDTA is added into the microplate for harvesting the cells, and then the cells are suspended in the DMEM and the cell number is counted. […]

HGF: hepatocyte growth factor, used at 50 ng/ml as comparison treatment
proteolytic activity of cultured RPE cell vs control set (48 hours, FIG. 32): a little bit greater | amount of AGE-BSA (FIG. 33): obviously decreased
